Measured values from patent US20030003139A1 (Schering AG, priority 2000, published 2003).

Columns and labels:
[1] = in-vitro-diffusion test, Franz-flow cell, transdermal in-vitro skin flow from patches; assay type: in vitro ADME, mice; details: for transdermal in-vitro skin flow / transdermal in-vitro skin flow, MW (mean value): gestodene patch 1% by weight; for transdermal in-vitro skin flow, MW (mean value): mean of cells
Excerpt: The measurements were made with the following in-vitro-diffusion test. A tempered Franz-flow cell is divided into a donor compartment and an acceptor compartment by a 2 cm^2 piece of excised skin from nude mice, whereby the horny layer faces toward the donor. A 3% or 5% solution of hydroxypropyl-β-cyclodextrin in buffer is pumped with the aid of a pneumatic pump from a tempered storage container through the acceptor compartment and collected with the aid of a fraction collector in glass vials that are exchanged at specific time intervals.
The active ingredient-containing patches are bonded to the donor side.
The content of active ingredients is determined in the individual fractions by means of HPLC/UV or GC/FID.
The transdermal in-vitro skin flow is indicated in ng/cm^2/h: […]

[2] = formulations for transdermal systems; cited from earlier work
[3] = solubility (crystal-free loadability) of the active ingredient in polyacrylate matrix-TDS according to Example 1; assay type: physicochemical; details: for content up to which active ingredient is present in dissolved form in matrix-TDS: matrix-TDS according to Example 1
Method: Hydroxytrienedione is weighed in a beaker and with 25 g of a 30% solution of Kollidon^(R) VA 64 in 2-propanol. 10 ml of 2-propanol is added. The mixture that is obtained is stirred for 5 minutes. The mixture is fed into the adhesive solution (Gelva 7881) that is introduced. The following table indicates the adhesive dry mass that is contained in the introduced volume of the adhesive solution. Then, it is stirred for another 0.5 hour. After polarization-microscopic checking to ensure the absence of crystals, the mixture that is obtained is coated by means of a 300 μm doctor blade on a liner that consists of fluoropolymer-coated polyester (Scotchpak^(R) 1022 Release Liner). It is dried for 20 minutes at 70° C. and then laminated with a backing that consists of a co-laminate of PVC-PVDS with polyester (Saran-Hytrel^(R) backing). Round patches with a surface area of 10 cm^2 are punched from the three-layer laminate that is obtained and welded into a sealed bag that is made of aluminum compound foil.
A matrix-TDS, in which the active ingredient is present in dissolved form, can be produced according to Example 1 with gestodene only up to about 1% (m/m). Moreover, it results in recrystallization phenomena of the gestodene. The skin flow cannot increase decisively.

Structure (SMILES): C#C[C@]1(O)C=C[C@H]2[C@@H]3CCC4=CC(=O)CC[C@@H]4[C@H]3CC[C@@]21CC [gestodene]
- transdermal in-vitro skin flow ([1]; 1 h, diffusion cell 1): 0 ng/cm^2/h
- transdermal in-vitro skin flow ([1]; 1 h, diffusion cell 2): 0 ng/cm^2/h
- transdermal in-vitro skin flow ([1]; 1 h, diffusion cell 3): 0 ng/cm^2/h
- transdermal in-vitro skin flow ([1]; 1 h, diffusion cell 4): 0 ng/cm^2/h
- transdermal in-vitro skin flow, MW (mean value) ([1]; 1 h): 0 ng/cm^2/h
- transdermal in-vitro skin flow ([1]; 3 h, diffusion cell 1): 1 ng/cm^2/h
- transdermal in-vitro skin flow ([1]; 3 h, diffusion cell 2): 4 ng/cm^2/h
- transdermal in-vitro skin flow ([1]; 3 h, diffusion cell 3): 2 ng/cm^2/h
- transdermal in-vitro skin flow ([1]; 3 h, diffusion cell 4): 5 ng/cm^2/h
- transdermal in-vitro skin flow, MW (mean value) ([1]; 3 h): 3 ng/cm^2/h
- transdermal in-vitro skin flow ([1]; 5 h, diffusion cell 1): 5 ng/cm^2/h
- transdermal in-vitro skin flow ([1]; 5 h, diffusion cell 2): 31 ng/cm^2/h
- transdermal in-vitro skin flow ([1]; 5 h, diffusion cell 3): 14 ng/cm^2/h
- transdermal in-vitro skin flow ([1]; 5 h, diffusion cell 4): 18 ng/cm^2/h
- transdermal in-vitro skin flow, MW (mean value) ([1]; 5 h): 17 ng/cm^2/h
- transdermal in-vitro skin flow ([1]; 10 h, diffusion cell 1): 39 ng/cm^2/h
- transdermal in-vitro skin flow ([1]; 10 h, diffusion cell 2): 72 ng/cm^2/h
- transdermal in-vitro skin flow ([1]; 10 h, diffusion cell 3): 80 ng/cm^2/h
- transdermal in-vitro skin flow ([1]; 10 h, diffusion cell 4): 58 ng/cm^2/h
- transdermal in-vitro skin flow, MW (mean value) ([1]; 10 h): 62 ng/cm^2/h
- transdermal in-vitro skin flow ([1]; 18 h, diffusion cell 1): 77 ng/cm^2/h
- transdermal in-vitro skin flow ([1]; 18 h, diffusion cell 2): 46 ng/cm^2/h
- transdermal in-vitro skin flow ([1]; 18 h, diffusion cell 3): 110 ng/cm^2/h
- transdermal in-vitro skin flow ([1]; 18 h, diffusion cell 4): 36 ng/cm^2/h
- transdermal in-vitro skin flow, MW (mean value) ([1]; 18 h): 67 ng/cm^2/h
- transdermal in-vitro skin flow ([1]; 26 h, diffusion cell 1): 120 ng/cm^2/h
- transdermal in-vitro skin flow ([1]; 26 h, diffusion cell 2): 45 ng/cm^2/h
- transdermal in-vitro skin flow ([1]; 26 h, diffusion cell 3): 111 ng/cm^2/h
- transdermal in-vitro skin flow ([1]; 26 h, diffusion cell 4): 33 ng/cm^2/h
- transdermal in-vitro skin flow, MW (mean value) ([1]; 26 h): 77 ng/cm^2/h
- transdermal in-vitro skin flow ([1]; 34 h, diffusion cell 1): 50 ng/cm^2/h
- transdermal in-vitro skin flow ([1]; 34 h, diffusion cell 2): 39 ng/cm^2/h
- transdermal in-vitro skin flow ([1]; 34 h, diffusion cell 3): 83 ng/cm^2/h
- transdermal in-vitro skin flow ([1]; 34 h, diffusion cell 4): 31 ng/cm^2/h
- transdermal in-vitro skin flow, MW (mean value) ([1]; 34 h): 51 ng/cm^2/h
- transdermal in-vitro skin flow ([1]; 42 h, diffusion cell 1): 47 ng/cm^2/h
- transdermal in-vitro skin flow ([1]; 42 h, diffusion cell 2): 33 ng/cm^2/h
- transdermal in-vitro skin flow ([1]; 42 h, diffusion cell 3): 74 ng/cm^2/h
- transdermal in-vitro skin flow ([1]; 42 h, diffusion cell 4): 25 ng/cm^2/h
- transdermal in-vitro skin flow, MW (mean value) ([1]; 42 h): 45 ng/cm^2/h
- transdermal in-vitro skin flow ([1]; 50 h, diffusion cell 1): 37 ng/cm^2/h
- transdermal in-vitro skin flow ([1]; 50 h, diffusion cell 2): 27 ng/cm^2/h
- transdermal in-vitro skin flow ([1]; 50 h, diffusion cell 3): 44 ng/cm^2/h
- transdermal in-vitro skin flow ([1]; 50 h, diffusion cell 4): 22 ng/cm^2/h
- transdermal in-vitro skin flow, MW (mean value) ([1]; 50 h): 32 ng/cm^2/h
- solubility in the matrices used [2]: about 1%
- content up to which active ingredient is present in dissolved form in matrix-TDS [3]: about 1 % (m/m)

Structure (SMILES): C[C@H](O)C(=O)[C@]12C=C[C@@]3(CC1)C1CCC4=CC(=O)CCC4=C1CC[C@]23C (stereo partly drawn) [hydroxytrienedione, (21S)-21-hydroxy-21-methyl-14,17-ethano-19-norpregna-4,9,15-triene-3,20-dione]
- skin flows for 1%-matrix-TDS, hydroxytrienedione versus gestodene ([1]; 1%-matrix-TDS): comparable
- content up to which active ingredient is present in dissolved form in matrix-TDS [3]: about 20 % (m/m)
- solubility in transdermal systems ([3]; matrix-transdermal systems based on polyacrylate adhesive): about 20 % by weight
